This note sets out measurements from US11639350B2, “Heteroaryldihydropyrimidine derivatives and methods of treating hepatitis B infections” (Janssen Pharmaceutica NV, priority 2018, dated 2023).

The test system of one data set is HBV. The data set is described as follows: HBV inhibitory activity: HBV DNA in the culture medium of HepG2.2.15 cells by q-PCR. Particulars: HepG2.2.15 cells, 6 days of compound treatment, HBV DNA in culture medium by q-PCR, highest concentration 10 μM, read-out: EC50. Type of data set: cell-based. Put shortly:
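HepG2.2.15 cells in 2% FBS medium, 40,000 per well, treated 6 days with compound (medium refreshed once), eight 3-fold dilutions from 10 μM top. HBV DNA extracted from culture medium and quantified by q-PCR; EC50 averaged over repeats. Cytotoxicity run in parallel at 5,000 cells per well, top 100 μM, giving CC50.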

For another data set, the system named is HepG2.2.15 cells. Put plainly: Cytotoxicity determination in HepG2.2.15 cells (CCK-8). It counts as cell-based. Conditions: 6 days of compound treatment, CCK-8, highest concentration 100 μM. Put shortly:
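HepG2.2.15 cells seeded at 5,000 cells/well in 2% FBS medium, incubated overnight at 37° C., then treated 6 days with compounds (8 points, 3-fold dilutions, top 100 μM), medium refreshed once midway. CCK-8 added for 2.5 h; A450 read against 630 nm reference; CC50 calculated, averaged over repeats.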

Where [1] appears, read: Hepatitis B virus, HepG2.2.15, 144 h.

Like-named read-outs stand apart in the source and are kept apart here. Bounds are passed on as bounds.

For `COC(=O)C1=C(C2CCCOC2)NC(c2nccs2)=NC1c1ccc(F)cc1Cl` (single isomer, unassigned) [Compound 48A, Methyl 4-(2-chloro-4-fluorophenyl)-6-(tetrahydro-2H-pyran-3-yl)-2-(thiazol-2-yl)-1,4-dihydropyrimidine-5-carboxylate], in the data set on HBV, the EC50 amounted to 565 nM. In the data set with HepG2.2.15 cells, this compound showed a cytotoxic concentration (CC50) of 46900 nM.
With `COC(=O)C1=C(C2CCN(S(C)(=O)=O)C2)NC(c2nccs2)=NC1c1ccc(F)cc1Cl` (single isomer, unassigned) [Compound 65A, 4-(2-Chloro-4-fluoro-phenyl)-6-(1-methanesulfonyl-pyrrolidin-3-yl)-2-thiazol-2-yl-1,4-dihydro-pyrimidine-5-carboxylic Acid Methyl Ester], in the data set with HBV (setting [1]), the EC50 is 425 nM. The CC50 with HepG2.2.15 cells was 69100 nM.
For `COC(=O)C1=C(C2CCOC2)NC(c2nccs2)=NC1c1cccc(F)c1Cl` (single isomer, unassigned) [Compound 74A, Methyl 4-(2-chloro-3-fluorophenyl)-6-(tetrahydrofuran-3-yl)-2-(thiazol-2-yl)-1,4-dihydropyrimidine-5-carboxylate], the EC50 in the data set on HBV was found to be 88 nM. This compound also gave a CC50 with HepG2.2.15 cells of 33000 nM.
Turning to `CCOC(=O)C1=C(C2CCN(S(=O)(=O)[C@H]3C[C@H](C(=O)O)C3)CC2)NC(c2nccs2)=NC1c1ccc(F)c(F)c1C` (single isomer, unassigned) [Compound 343C, (trans)-3-((4-(6-(3,4-difluoro-2-methylphenyl)-5-(ethoxycarbonyl)-2-(thiazol-2-yl)-3,6-dihydropyrimidin-4-yl)piperidin-1-yl)sulfonyl)cyclobutanecarboxylic Acid], in the data set on HBV, the EC50 came out at 14 nM. Also, in the data set on HepG2.2.15 cells, the CC50 worked out at 25200 nM.
Taken in the same sequence, the figures for `COC(=O)C1=C(C2CCC(=O)N2)NC(c2nccs2)=NC1c1cccc(F)c1Cl` (single isomer, unassigned) [Compound 75A, Methyl 4-(2-chloro-3-fluorophenyl)-6-(5-oxopyrrolidin-2-yl)-2-(thiazol-2-yl)-1,4-dihydropyrimidine-5-carboxylate] were 213 nM and 32300 nM.
The like results for `CCOC(=O)C1=C(C2CCN(S(=O)(=O)C3CC(C)(C(=O)O)C3)CC2)NC(c2nccs2)=NC1c1cccc(F)c1Cl` (single isomer, unassigned) [Compound 321A, (trans)-3-((4-(6-(2-Chloro-3-fluorophenyl)-5-(ethoxycarbonyl)-2-(thiazol-2-yl)-3,6-dihydropyrimidin-4-yl)piperidin-1-yl)sulfonyl)-1-methylcyclobutanecarboxylic Acid] were, in that order, 12 nM and 17200 nM.
The like results for `COC(=O)C1=C(C2CCC(NC(C)=O)C2)NC(c2nccs2)=NC1c1cccc(F)c1Cl` (single isomer, unassigned) [Compound 62G, Methyl 6-(3-acetamidocyclopentyl)-4-(2-chloro-3-fluorophenyl)-2-(thiazol-2-yl)-1,4-dihydropyrimidine-5-carboxylate] were, in that order, 119 nM and 37100 nM.
As to `COC(=O)C1=C(C2CCN(S(=O)(=O)CC3(C)CCC(C(=O)O)CC3)CC2)NC(c2nccs2)=NC1c1ccc(F)c(F)c1Cl` (single isomer, unassigned) [Compound 452A, (cis)-4-(((4-(6-(2-Chloro-3,4-difluorophenyl)-5-(methoxycarbonyl)-2-(thiazol-2-yl)-3,6-dihydropyrimidin-4-yl)piperidin-1-yl)sulfonyl)methyl)-4-methylcyclohexanecarboxylic Acid], in the data set on HBV, the EC50 was 6 nM. The compound also gave a CC50 with HepG2.2.15 cells of 9700 nM.
Taken in the same sequence, the figures for `COC(=O)C1=C(C2CCCC(C(=O)O)CC2)NC(c2nccs2)=NC1c1ccc(F)cc1Cl` (single isomer, unassigned) [Compound 95C, 4-(6-(2-Chloro-4-fluorophenyl)-5-(methoxycarbonyl)-2-(thiazol-2-yl)-3,6-dihydropyrimidin-4-yl)cycloheptanecarboxylic Acid] were 117 nM and 33100 nM.
Taken in the same sequence, the figures for `COC(=O)C1=C(C2CCN(S(=O)(=O)C3CC(C)(C(=O)O)C3)CC2)NC(c2nccs2)=NC1c1ccc(F)cc1Br` (single isomer, unassigned) [Compound 410C, trans-3-((4-(6-(2-Bromo-4-fluorophenyl)-5-(methoxycarbonyl)-2-(thiazol-2-yl)-3,6-dihydropyrimidin-4-yl)piperidin-1-yl)sulfonyl)-1-methylcyclobutanecarboxylic Acid] were 16 nM and 24700 nM.
Taken in the same sequence, the figures for `COC(=O)C1=C([C@H]2CC[C@H](NS(C)(=O)=O)CC2)NC(c2ncc(F)cc2F)=NC1c1ccc(F)c(F)c1Cl` (some centres unmarked) [Compound 298B] were 17 nM and 13200 nM.
With `COC(=O)C1=C(C2CCNC(=O)C2)NC(c2nccs2)=NC1c1ccc(F)cc1Cl` (single isomer, unassigned) [Compound 3C, Methyl 4-(2-chloro-4-fluorophenyl)-6-(2-oxopiperidin-4-yl)-2-(thiazol-2-yl)-1,4-dihydro-pyrimidine-5-carboxylate], the EC50 in the data set on HBV is 132 nM. The same compound registered a CC50 in the data set with HepG2.2.15 cells of 5600 nM.
Taken in the same sequence, the figures for `CCOC(=O)C1=C(C2CCN(S(=O)(=O)C3CC(CC(=O)O)C3)CC2)NC(c2nccs2)=NC1c1ccc(F)c(F)c1Cl` (centres unmarked) [Compound 482B, 2-(3-((4-(6-(2-Chloro-3,4-difluorophenyl)-5-(ethoxycarbonyl)-2-(thiazol-2-yl)-3,6-dihydropyrimidin-4-yl)piperidin-1-yl)sulfonyl)cyclobutyl)acetic Acid] were 11 nM and 11300 nM.
As to `COC(=O)C1=C([C@H]2CC[C@H](NS(C)(=N)=O)CC2)NC(c2nccs2)=NC1c1ccc(F)cc1Cl` (single isomer, unassigned) [Compound 287B, Methyl 4-(2-chloro-4-fluorophenyl)-6-((trans)-4-(methylsulfonoimidamido)cyclohexyl)-2-(thiazol-2-yl)-1,4-dihydropyrimidine-5-carboxylate], the EC50 with HBV (setting [1]) was found to be 72 nM. Further, in the data set on HepG2.2.15 cells, the half-maximal cytotoxic concentration (CC50) turned out to be 23100 nM.
Take `COC(=O)C1=C(C2COC(CO)C2)NC(c2nccs2)=NC1c1cccc(F)c1Cl` (single isomer, unassigned) [Compound 219C, Methyl 4-(2-chloro-3-fluorophenyl)-6-(5-(hydroxymethyl)-tetrahydrofuran-3-yl)-2-(thiazol-2-yl)-1,4-dihydropyrimidine-5-carboxylate]: in the data set on HBV, the 50% effective concentration (EC50) came out at 176 nM. In the data set on HepG2.2.15 cells, half-maximal cytotoxicity (CC50) was put at 10300 nM.
The like results for `COC(=O)C1=C(C2CCC(NC(C)=O)C2)NC(c2nccs2)=NC1c1cccc(F)c1Cl` (single isomer, unassigned) [Compound 62B, Methyl 6-(3-acetamidocyclopentyl)-4-(2-chloro-3-fluorophenyl)-2-(thiazol-2-yl)-1,4-dihydropyrimidine-5-carboxylate] were, in that order, 63 nM and 22900 nM.
The like results for `CCCS(=O)(=O)N1CCC(C2=C(C(=O)OC)C(c3ccc(F)cc3Cl)N=C(c3nccs3)N2)C1` (single isomer, unassigned) [Compound 256A, Methyl 4-(2-chloro-4-fluorophenyl)-6-(−1-(propylsulfonyl)pyrrolidin-3-yl)-2-(thiazol-2-yl)-1,4-dihydropyrimidine-5-carboxylate] were, in that order, 82 nM and above 100000 nM.
The like results for `COC(=O)C1=C(C2CCC(NC(C)=O)C2)NC(c2nccs2)=NC1c1ccc(F)c(F)c1Cl` (single isomer, unassigned) [Compound 300B, Methyl 6-(−3-acetamidocyclopentyl)-4-(2-chloro-3,4-difluorophenyl)-2-(thiazol-2-yl)-1,4-dihydropyrimidine-5-carboxylate] were, in that order, 13 nM and 28600 nM.
As for `CCOC(=O)C1=C(C2CCN(S(=O)(=O)C3CC(C)(C(=O)O)C3)CC2)NC(c2nccs2)=NC1c1cccc(F)c1C` (single isomer, unassigned) [Compound 429C, (trans)-3-((4-(−5-(Ethoxycarbonyl)-6-(3-fluoro-2-methylphenyl)-2-(thiazol-2-yl)-3,6-dihydropyrimidin-4-yl)piperidin-1-yl)sulfonyl)-1-methylcyclobutanecarboxylic Acid], the 50% effective concentration (EC50) in the data set on HBV stood at 66 nM. The cytotoxic concentration (CC50) with HepG2.2.15 cells was determined as 25500 nM.
Consider `COC(=O)C1=C(C2CCN(S(=O)(=O)C3CC(C)(C(=O)O)C3)CC2)NC(c2nccs2)=NC1c1ccc(F)cc1Br` (single isomer, unassigned) [Compound 410D, cis-3-((4-(6-(2-Bromo-4-fluorophenyl)-5-(methoxycarbonyl)-2-(thiazol-2-yl)-3,6-dihydropyrimidin-4-yl)piperidin-1-yl)sulfonyl)-1-methylcyclobutanecarboxylic Acid], for which the EC50 in the data set with HBV was 43 nM. The compound also showed a CC50 with HepG2.2.15 cells of 23700 nM.
Taken in the same sequence, the figures for `COC(=O)C1=C(C2CCC(NC(C)=O)C2)NC(c2nccs2)=NC1c1ccc(F)c(F)c1Cl` (single isomer, unassigned) [Compound 300D, Methyl 6-(−3-acetamidocyclopentyl)-4-(2-chloro-3,4-difluorophenyl)-2-(thiazol-2-yl)-1,4-dihydropyrimidine-5-carboxylate] were 14 nM and 12600 nM.
The like results for `COC(=O)C1=C(C2CCOC2)NC(c2nccs2)=NC1c1cccc(F)c1Cl` (single isomer, unassigned) [Compound 74C, Methyl 4-(2-chloro-3-fluorophenyl)-6-(tetrahydrofuran-3-yl)-2-(thiazol-2-yl)-1,4-dihydropyrimidine-5-carboxylate] were, in that order, 249 nM and 86500 nM.

A word on the EC50: it is the concentration at which the effect is half-maximal. One may read the CC50 as the concentration giving 50% cytotoxicity.
